Measurements published in patent US5478825A, “5-(substituted amino)-1,2,4-triazolo (1,5-A) pyrimidine derivatives” (Egis Gyogyszergyar, priority 1991, dated 1995).

Key:
gastric acid secretion = experiment: Gastric acid secretion test; format: in vivo, rat
Procedure: 8. […] Rats of both sexes (Wistar breed, weighing 180-240 g) were fastened for 48 hours. On the day of the test the pylorus of the animals was bound under ether narcosis. The test compounds were administered orally 3 hours before the operation. 4 hours after the operation the animals were anaesthetized and the stomach was removed, the content thereof was centrifuged and the amount of the free acid was determined by titration, in the presence of Topfer reagent. The inhibition in relation to the control is calculated in percentage.

hexobarbital narcosis = experiment: Narcosis potentiating activity (hexobarbital); format: in vivo, mice; settings: for Narcosis potentiating effect: 100 mg/kg, orally, frequency of positive reaction, hexobarbital 40 mg/kg i.v.
Procedure: 6. Narcosis potentiating activity
Groups consisting of 6 mice each were orally treated with the compound to be examined. After one hour, hexobarbital [5-(1-cyclohexenyl)-1,5-dimethylbarbituric acid] was injected intravenously at a dosage of 40 mg/kg. The control group was treated only with hexobarbital to provoke sleep. The duration of sleep was recorded. If the duration of sleep of an animal exceeded that of the mean value of the control group by a factor of 2.5, it was considered as a positive reaction. The frequency of the positive reaction is expressed as the percentage of the value obtained for the control animals.

pentetrazole spasm = experiment: Spasmolytic activity on mice (pentetrazole spasm); format: in vivo; settings: orally; for Inhibition of pentetrazole spasm: 100 mg/kg, pentetrazole 125 mg/kg i.p.
Procedure: 7. Spasmolytic activity on mice
The tests were carried out according to the modified method of Benzinger and Hane [Arch. Int. Pharmacodyn. 167, 245-249 (1959)]. Mice of both sexes (NMRI breed, body weight 20-25 g) were treated orally with the compounds to be tested. One hour after the administration pentetrazole (6,7,8,9-tetrahydro-5H-tetrazoloazepine) was given intraperitoneally in a dosis of 125 mg/kg. The tonic-extensoric spasms on the hind limbs were registered. As reference compound 3,5,5-trimethyl-oxazolidine-2,4-dione (trimetadione) was used.

motility of mice = experiment: Motility inhibiting activity; format: in vivo
Procedure: 5. Motility inhibiting activity
The tests were performed according to the method of Borsy et al. [Arch. Int. Pharmacodyn. 124, 1-2 (1960)]. Groups consisting of 3 mice each were treated orally with different doses of the compounds to be tested. Then the test animals were placed in a Dews equipment. In this equipment the number of interruptions of infrared beam within 30 minutes was counted. The inhibition is expressed as the percentage of the value obtained for the control animals.

CN/C(=N/CCSCc1nc[nH]c1C)NC#N [Cimetidine, reference compound]
Inhibition (gastric acid secretion) (gastric acid secretion; 200 mg/kg p.o.): 91%

CCN(CC)c1c2c(nc3nc(SC)nn13)CCC2 [Example 1, 5-(Diethylamino)-2-(methylthio)-6,7-dihydro-8H-cyclopenta[d]-1,2,4-triazolo[1,5-a]pyrimidine]
Inhibition (gastric acid secretion) (gastric acid secretion; 200 mg/kg p.o.): 75%

OCCN(CCO)c1c2c(nc3nc(N4CCOCC4)nn13)CCC2 [Example 11, 5-[N-bis(2-Hydroxyethyl)]amino-2-morpholino-6,7-dihydro-8H-cyclopenta[d]-1,2,4-triazolo[1,5-a]pyrimidine]
Narcosis potentiating effect (hexobarbital narcosis): 67%

C1Cc2nc3nc(N4CCOCC4)nn3c(N3CCOCC3)c2C1 [Example 15, 2,5-Dimorpholino-6,7-dihydro-8H-cyclopenta[d]-1,2,4-triazolo[1,5-a]pyrimidine]
Inhibition of pentetrazole spasm (pentetrazole spasm): -50% | Change in motility vs control (motility of mice; 100 mg/kg, orally): -65%

CSc1nc2nc3c(c(NCCN4CCOCC4)n2n1)CCCC3 [Example 18, 2-(Methylthio)-5-[N-(2-morpholinoethyl)]amino-6,7,8,9-tetrahydro-1,2,4-triazolo[5,1-b]quinazoline]
Inhibition of pentetrazole spasm (pentetrazole spasm): -56%

Cc1cc(N(CCO)Cc2ccccc2)n2nc(N3CCOCC3)nc2n1 [Example 24, 5-[N-Benzyl-N-(2-hydroxyethyl)]amino-7-methyl-2-morpholino-1,2,4-triazolo[1,5-a]pyrimidine]
Narcosis potentiating effect (hexobarbital narcosis): 67%

CCCC(C)(COC(N)=O)COC(N)=O [Meprobamate, reference compound]
ED50 (motility of mice; Mus musculus, po, read-out: ED50 (motility inhibition)): 232 mg/kg | motility inhibition (in words) (motility of mice; dose of 100 mg/kg): inactive | ED50 (hexobarbital narcosis; Mus musculus, po, read-out: ED50 (narcosis potentiating effect)): 260 mg/kg | narcosis potentiating effect (in words) (hexobarbital narcosis; dose of 100 mg/kg): inactive

CN1C(=O)OC(C)(C)C1=O [Trimetadione, 3,5,5-trimethyl-oxazolidine-2,4-dione, reference compound]
ED50 (pentetrazole spasm; Mus musculus, po, read-out: ED50 (inhibition of pentetrazole spasm)): 400 mg/kg

COc1cc(C(=S)N2CCOCC2)cc(OC)c1OC [Trithiozine, reference compound]
Inhibition (gastric acid secretion) (gastric acid secretion; 400 mg/kg p.o.): 63%
